From patent publication US12049452B2, “Olaparib hydroxybenzoic acid cocrystals and their pharmaceutical use” (NUFORMIX TECHNOLOGIES LIMITED, priority 2021, dated 2024)

Assays:
[1] = low solubility and low permeability; cited from earlier work
[2] = Solid-state stability study under accelerated storage conditions (XRPD form change, HPLC purity); assay type: physicochemical; conditions: 7 days; for Purity: HPLC
Protocol: Bruker D8 X-Ray Powder Diffraction (XRPD) Characterization: X-ray powder diffraction patterns for the samples were acquired on a Bruker D8 diffractometer using Cu Ka radiation (40 kV, 40 mA) and a θ-2θ goniometer fitted with a Ge monochromator. The incident beam passes through a 2.0 mm divergence slit followed by a 0.2 mm anti-scatter slit and knife edge. The diffracted beam passes through an 8.0 mm receiving slit with 2.5° Soller slits followed by the Lynxeye Detector. The software used for data collection and analysis was Diffrac Plus XRD Commander and Diffrac Plus EVA respectively. Samples were run under ambient conditions over an angular range of 2° to 42° 2θ (using a step size of 0.05° 2θ and a step time of 0.5 seconds) as flat plate specimens using powder as received. The sample was prepared on a polished, zero-background (510) silicon wafer by gently pressing onto the flat surface or packed into a cut cavity. The sample was rotated in its own plane. Small D8 disc recess holders were used to prepare samples.
Chemical Purity Determination by HPLC: Purity analysis was performed on an Agilent HP1100/Infinity II 1260 series system equipped with a diode array detector and using Open LAB software.
A study was carried out to examine the physical stability of the olaparib hydroxybenzoic acid cocrystals with respect to solid form conversion or signs of decomposition over time under accelerated storage conditions. The 1:1 olaparib gentisic acid cocrystal, 2:1 olaparib gentisic acid cocrystal, 1:1 olaparib 2,4-dihydroxybenzoic acid cocrystal, 2:1 2,4-dihydroxybenzoic acid cocrystal, and the 2:1 olaparib 4-hydroxybenzoic acid cocrystal were separately stored at 40° C./75% relative humidity and 25° C./97% relative humidity for 7 days. After this time, all samples remained as white solids with no signs of deliquescence. Each sample was analysed by XRPD to observe any potential form changes and by HPLC to determine purity so as to determine any signs of decomposition.

[3] = Gravimetric Vapour Sorption (GVS) moisture sorption isotherm; assay type: physicochemical; conditions: for XRPD analysis of the sample post GVS (cocrystal structure): after GVS isotherm
Protocol: Gravimetric Vapour Sorption (GVS): Sorption isotherms were obtained using a SMS DVS Intrinsic moisture sorption analyzer, controlled by DVS Intrinsic Control software. The sample temperature was maintained at 25° C. by the instrument controls. The humidity was controlled by mixing streams of dry and wet nitrogen, with a total flow rate of 200 ml/min. The relative humidity was measured by a calibrated Rotronic probe (dynamic range of 1.0-100% RH), located near the sample. The weight change, (mass relaxation) of the sample as a function of % RH was constantly monitored by a microbalance (accuracy ±0.005 mg).
Typically, 5-30 mg of sample was placed in a tared mesh stainless steel basket under ambient conditions. The sample was loaded and unloaded at 40% RH and 25° C. (typical room conditions). A moisture sorption isotherm was performed as outlined in Table 1 (2 scans per complete cycle). The standard isotherm was performed at 25° C. at 10% RH intervals over a 0-90% RH range. Typically, a double cycle (4 scans) was carried out. Data analysis was carried out within Microsoft Excel using the DVS Analysis Suite. The sample was recovered after completion of the isotherm and re-analyzed by XRPD.

[4] = Dissolution study in simulated intestinal fluid (FaSSIF V2), Pion inForm instrument; assay type: physicochemical; conditions: FaSSIF V2 pH 6.5, 37° C.
Description: As described in US 2018/0113216, the oral bioavailability of olaparib is dependent on both the dissolution rate and overall solubility of the drug in the gastro-intestinal (GI) tract. US 2018/0113216 describes how olaparib has a propensity for efflux by P-gp at concentrations limiting its permeability and thus limiting its absorption from the GI tract. This efflux ratio is lowered as the concentration of drug in solution increases. Thus, to minimize this efflux issue and achieve optimal absorption and bioavailability it is essential to find a form of olaparib that has as high a dissolution rate as possible in the GI tract and that also maintains a high level of solubility over a sufficient period of time to allow the drug to be absorbed into the blood stream. […] The dissolution study was carried out using 50 mL simulated intestinal fluid (FaSSIF V2) at pH 6.5 (37° C.) using a quantity of each olaparib form equivalent to 25 mg olaparib. […] Detection and quantification of olaparib was performed by in-situ UV-spectroscopy using a fibre-optic probe, allowing instantaneous data collection from the point of sample introduction. UV absorption data was converted to mg/mL (±0.2 mg/mL) using a previously determined pH dependent molar extinction coefficients to quantitate the amount of dissolved drug.

[5] = across the 0-90% relative humidity range at 25° C. under nitrogen

SMILES	XRPD Analysis ([2]; 25° C./97% RH)	Purity ([2]; 25° C./97% RH) [%]	XRPD Analysis ([2]; 40° C./75 RH)	Purity ([2]; 40° C./75 RH) [%]	reversibly absorbed moisture (GVS) [3, 5] [% w/w]	XRPD analysis of the sample post GVS (cocrystal structure) [3]	reversibly absorbed moisture (GVS) ([3]; between 0 and 5% RH, 25° C.) [% w/w]	rate of dissolution after particle size reduction ([4]; compared with olaparib form A as supplied)	BCS class [1]	amount of olaparib dissolved after particle size reduction ([4]; any one timepoint over a 30-minute time period, compared with form A as supplied)
O=C(c1cc(Cc2n[nH]c(=O)c3ccccc23)ccc1F)N1CCN(C(=O)C2CC2)CC1 [olaparib, 4-[(3-{[4-(cyclopropylcarbonyl)piperazin-1-yl]carbonyl}-4-fluorophenyl)methyl]phthalazin-1(2H)-one]									class 4	
O=C(O)c1cc(O)ccc1O.O=C(c1cc(Cc2n[nH]c(=O)c3ccccc23)ccc1F)N1CCN(C(=O)C2CC2)CC1 [1:1 olaparib gentisic acid cocrystal]	No change	99.79	No change	99.70						
O=C(c1cc(Cc2n[nH]c(=O)c3ccccc23)ccc1F)N1CCN(C(=O)C2CC2)CC1 [milled olaparib form A]								lower rate of dissolution		overall decrease in the amount of olaparib dissolved
O=C(O)c1ccc(O)cc1O.O=C(c1cc(Cc2n[nH]c(=O)c3ccccc23)ccc1F)N1CCN(C(=O)C2CC2)CC1	No change	99.22	No change	99.43						

Further lines, with some results ahead:

XRPD Analysis ([2]; 25° C./97% RH)	Purity ([2]; 25° C./97% RH) [%]	XRPD Analysis ([2]; 40° C./75 RH)	Purity ([2]; 40° C./75 RH) [%]	reversibly absorbed moisture (GVS) [3, 5] [% w/w]	XRPD analysis of the sample post GVS (cocrystal structure) [3]	reversibly absorbed moisture (GVS) ([3]; between 0 and 5% RH, 25° C.) [% w/w]	rate of dissolution after particle size reduction ([4]; compared with olaparib form A as supplied)	SMILES	BCS class [1]	amount of olaparib dissolved after particle size reduction ([4]; any one timepoint over a 30-minute time period, compared with form A as supplied)
No change	99.64	No change	99.45	4.5	unchanged	2.5		O=C(O)c1ccc(O)cc1O.O=C(c1cc(Cc2n[nH]c(=O)c3ccccc23)ccc1F)N1CCN(C(=O)C2CC2)CC1.O=C(c1cc(Cc2n[nH]c(=O)c3ccccc23)ccc1F)N1CCN(C(=O)C2CC2)CC1		
No change	99.64	No change	99.59	3.4	unchanged	1.6		O=C(O)c1cc(O)ccc1O.O=C(c1cc(Cc2n[nH]c(=O)c3ccccc23)ccc1F)N1CCN(C(=O)C2CC2)CC1.O=C(c1cc(Cc2n[nH]c(=O)c3ccccc23)ccc1F)N1CCN(C(=O)C2CC2)CC1 [2:1 olaparib gentisic acid cocrystal]		
No change	99.69	No change	99.70	3.4	unchanged	1.5		O=C(O)c1ccc(O)cc1.O=C(c1cc(Cc2n[nH]c(=O)c3ccccc23)ccc1F)N1CCN(C(=O)C2CC2)CC1.O=C(c1cc(Cc2n[nH]c(=O)c3ccccc23)ccc1F)N1CCN(C(=O)C2CC2)CC1		
